We go through 6 compounds from ChEMBL document CHEMBL1152503, “Quantitative high-throughput screening identifies inhibitors of anthrax-induced cell death” (Bioorg Med Chem, 2009).

Activity calls are given as the source filed them. No cut-off for these calls is given here.

In data set [1] the test system is RAW264.7. Description: Cytoprotective activity against anthrax toxin lethal factor/protective antigen-induced cell death in mouse RAW264.7 cells assessed as cell viability at 10 uM by MTT reduction assay. Type of data set: functional, cell-based. (Tetrazolium dyes change colour on reduction, which living cells bring about.)
The subject of data set [2] is RAW264.7. The data set is described as follows: Cytoprotective activity against anthrax toxin lethal factor-induced cell death in mouse RAW264.7 cells assessed as cell viability at 3 uM by MTT reduction assay. Type of data set: functional, cell-based.
The subject of data set [3] is CHO. Description: Cytoprotective activity against diphtheria toxin-induced cell death in CHO cells assessed as cell viability at 5 uM by MTT reduction assay. Type of data set: functional. The settings on record: Cricetulus griseus, read-out: Activity.
The test system of data set [4] is RAW264.7. The data set is described as follows: Cytoprotective activity against anthrax lethal toxin-induced cell death in mouse RAW264.7 cells assessed as cell viability at 2 uM preincubated for 45 mins with lethal toxin measured after 1 hr by MTT reduction assay. Type of data set: functional, cell-based.
Data set [5] concerns CHO. Description: Cytoprotective activity against anthrax fusion toxin FP59-induced cell death in CHO cells assessed as cell viability by MTT reduction assay. Type of data set: functional, cell-based. The settings on record: Cricetulus griseus.
Data set [6] concerns the target Replicase polyprotein 1ab (Severe acute respiratory syndrome-related coronavirus, UniProt P0C6X7). The data set is described as follows: Inhibition of SARS Co-V 3CL protease.
Data set [7] relates to CHO. The data set is described as follows: Cytoprotective activity against diphtheria toxin-induced cell death in CHO cells assessed as cell viability at 10 uM by MTT reduction assay. As to conditions: Cricetulus griseus, read-out: Activity. The data set is classed as functional.
Data set [8] deals with RAW264.7. Description: Cytotoxicity against mouse RAW264.7 cells at 10 uM by MTT assay. Type of data set: cell-based. The settings on record: raw264.7, 10 µM.

Turning to `Cc1ccnc(-n2sc3ccccc3c2=O)n1`, the outcome with RAW264.7 [1] was inactive.

For the compound `N=C1Sc2ccccc2C2=NCCCN12`, the outcome with RAW264.7 [1] was inactive.

For `COc1cc2c(O)c3c(c(-c4ccc5c(c4)OCO5)c2cc1OC)C(=O)OC3` [DIPHYLLIN], the result with RAW264.7 [2], in the data set on RAW264.7 [4] and in the data set with CHO [5] was Active. In the data set with CHO [3], the viability at 5 µM was 100%.

As usually defined, the IC50 is the concentration that inhibits the measured activity by half. A low value points to greater potency in that assay. For the compound `O=C(Nc1ccc([N+](=O)[O-])cc1Cl)c1cc(Cl)ccc1O` [NICLOSAMIDE], the outcome in the data set on RAW264.7 [1] and in the data set with CHO [5] was Active. In addition, the viability at 5 µM with CHO [3] stood at 100%. Besides, the IC50 in data set [6] was 40 µM.

As for `Cc1ccc2oc(=O)c3cnn(CC(=O)Nc4ccccc4N4CCN(C)CC4)c3c2c1`, the viability at 10 µM with CHO [7] was 75%. Also, the result with RAW264.7 [1] and in the data set on CHO [5] was Active.

Turning to `CN(C)CCCn1cc(C2=C(c3c[nH]c4ccccc34)C(=O)NC2=O)c2ccccc21` [GF-109203], the viability at 10 µM in the data set with CHO [7] amounted to 60%. Moreover, in the data set on RAW264.7 [8], the Activity entry was “Toxic”.
